According to patent publication EP0150638A1, “Pyrethroid composition for the local treatment of skin diseases” (CENTRE DE RECHERCHE D'APPLICATIONS PHARMACEUTIQUES …, priority 1983, dated 1985):

Experiment: primary cutaneous irritation test
Format: in vivo, lapin
Details: rabbit; compared with other allethrin isomers, natural pyrethrin, or hydrocarbon-containing compositions
Source text: Le pouvoir irritant des compositions selon l'invention a été étudié chez le lapin, par un test d'irritation cutanée primaire, dont les conditions de réalisation sont définies dans le Journal Officiel de la République Française du 21 avril 1971, complété par celui du 5 juin 1973. Il a été comparé à celui des compositions où des pyréthrines naturelles remplaçaient les pyréthrinoldes de l'invention et à celui de compositions résultant du mélange des pyréthrinoides et d'huile de vaseline ou d'isododécane.

## C=CCC1=C(C)[C@@H](OC(=O)[C@@H]2[C@@H](C=C(C)C)C2(C)C)CC1=O [pyréthrinoide de l'exemple 1, d-transchrysanthémate de d-alléthrolone]
  pouvoir irritant (comparison in words): beaucoup moins irritant
